Structures are written as SMILES.

The results in this text go back to patent US7074789B2, “Kinase inhibitors” (Amgen Inc., priority 1999, dated 2006).

Assay type in all cases: biochemical
The target in assay [1] is T1, ErbB2 (Homo sapiens, UniProt P04626).
T1 construct: Kinases are expressed as either kinase domains or full length constructs; made in house
The assay can be described thus: Kinase inhibition assay (33P transfer), ErbB2. Particulars: read-out: ErbB2-2. In outline:
(§1)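 Read-out: scintillation counts of 33P moved from ATP onto synthetic peptide polymer coated on the well surface, after washing with 0.5% phosphoric acid. Enzymes were tagged (GST or polyHistidine) and came from bacterial or insect-cell expression. IC50 marks 50% loss of incorporated label.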

Assay [2] has as its target T2, AKT (Homo sapiens, UniProt Q9Y243).
T2 construct: Kinases are expressed as either kinase domains or full length constructs; made in house
As to the kind of experiment: Kinase inhibition assay (33P transfer), AKT. Particulars: Table 2, kinase inhibition class; read-out: AKT3-1. Put shortly:
(§2)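 Filterless plate radiometric format: immobilized poly(Glu,Tyr) 4:1 or poly(Arg,Ser) 3:1, 33P-labelled ATP, tagged recombinant kinase (some with regulatory partners). Incorporated label counted after phosphoric acid wash.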

Assay [3] has as its target T3, Kdr (Homo sapiens, UniProt P35968).
T3 construct: Kinases are expressed as either kinase domains or full length constructs; made in house
As to the kind of experiment: Kinase inhibition assay (33P transfer), Kdr. The settings on record: read-out: KDR-1. In outline: as §2

The target in assay [4] is T4, Zap-70 (Homo sapiens, UniProt P43403).
T4 construct: Kinases are expressed as either kinase domains or full length constructs; made in house
T4 sequence (P43403 1-619): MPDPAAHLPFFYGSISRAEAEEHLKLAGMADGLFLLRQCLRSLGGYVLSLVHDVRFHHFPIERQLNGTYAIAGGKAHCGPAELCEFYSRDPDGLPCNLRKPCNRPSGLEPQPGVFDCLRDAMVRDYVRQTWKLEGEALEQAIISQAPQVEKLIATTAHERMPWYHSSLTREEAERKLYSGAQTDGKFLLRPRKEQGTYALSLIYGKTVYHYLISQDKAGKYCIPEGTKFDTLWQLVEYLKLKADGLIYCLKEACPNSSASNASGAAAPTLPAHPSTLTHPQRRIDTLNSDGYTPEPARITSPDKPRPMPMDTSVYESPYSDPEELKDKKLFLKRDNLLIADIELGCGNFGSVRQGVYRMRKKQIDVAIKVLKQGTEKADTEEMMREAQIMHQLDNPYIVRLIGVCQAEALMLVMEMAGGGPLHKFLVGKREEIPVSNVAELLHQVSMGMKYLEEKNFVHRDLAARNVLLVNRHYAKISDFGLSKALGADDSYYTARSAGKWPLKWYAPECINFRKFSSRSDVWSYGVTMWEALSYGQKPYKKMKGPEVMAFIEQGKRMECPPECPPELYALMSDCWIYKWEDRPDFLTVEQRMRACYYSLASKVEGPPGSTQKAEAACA
The assay can be described thus: Kinase inhibition assay (33P transfer), Zap-70. Particulars: read-out: Zap-1. Put shortly: as §2

Assay [5] concerns the target T5, c-Met (Homo sapiens, UniProt P08581).
T5 construct: Kinases are expressed as either kinase domains or full length constructs; made in house
As to the kind of experiment: Kinase inhibition assay (33P transfer), c-Met. Particulars: Table 2, kinase inhibition class; read-out: Met-1. In outline: as §1

Assay [6] concerns the target T6, Lck (Homo sapiens, UniProt P06239).
T6 construct: Kinases are expressed as either kinase domains or full length constructs; made in house
The assay can be described thus: Kinase inhibition assay (33P transfer), Lck. The settings on record: read-out: Lck-1. In outline: as §2

Assay [7] has as its target T7, PDGFRB (Homo sapiens, UniProt P09619).
T7 construct: Kinases are expressed as either kinase domains or full length constructs; made in house
The assay can be described thus: Kinase inhibition assay (33P transfer), PDGFRB. Particulars: read-out: PDGFRB-1.

In assay [8] the target is T8, IGFR-1 (Homo sapiens, UniProt P08069).
T8 construct: Kinases are expressed as either kinase domains or full length constructs; made in house
T8 sequence (P08069 31-1367): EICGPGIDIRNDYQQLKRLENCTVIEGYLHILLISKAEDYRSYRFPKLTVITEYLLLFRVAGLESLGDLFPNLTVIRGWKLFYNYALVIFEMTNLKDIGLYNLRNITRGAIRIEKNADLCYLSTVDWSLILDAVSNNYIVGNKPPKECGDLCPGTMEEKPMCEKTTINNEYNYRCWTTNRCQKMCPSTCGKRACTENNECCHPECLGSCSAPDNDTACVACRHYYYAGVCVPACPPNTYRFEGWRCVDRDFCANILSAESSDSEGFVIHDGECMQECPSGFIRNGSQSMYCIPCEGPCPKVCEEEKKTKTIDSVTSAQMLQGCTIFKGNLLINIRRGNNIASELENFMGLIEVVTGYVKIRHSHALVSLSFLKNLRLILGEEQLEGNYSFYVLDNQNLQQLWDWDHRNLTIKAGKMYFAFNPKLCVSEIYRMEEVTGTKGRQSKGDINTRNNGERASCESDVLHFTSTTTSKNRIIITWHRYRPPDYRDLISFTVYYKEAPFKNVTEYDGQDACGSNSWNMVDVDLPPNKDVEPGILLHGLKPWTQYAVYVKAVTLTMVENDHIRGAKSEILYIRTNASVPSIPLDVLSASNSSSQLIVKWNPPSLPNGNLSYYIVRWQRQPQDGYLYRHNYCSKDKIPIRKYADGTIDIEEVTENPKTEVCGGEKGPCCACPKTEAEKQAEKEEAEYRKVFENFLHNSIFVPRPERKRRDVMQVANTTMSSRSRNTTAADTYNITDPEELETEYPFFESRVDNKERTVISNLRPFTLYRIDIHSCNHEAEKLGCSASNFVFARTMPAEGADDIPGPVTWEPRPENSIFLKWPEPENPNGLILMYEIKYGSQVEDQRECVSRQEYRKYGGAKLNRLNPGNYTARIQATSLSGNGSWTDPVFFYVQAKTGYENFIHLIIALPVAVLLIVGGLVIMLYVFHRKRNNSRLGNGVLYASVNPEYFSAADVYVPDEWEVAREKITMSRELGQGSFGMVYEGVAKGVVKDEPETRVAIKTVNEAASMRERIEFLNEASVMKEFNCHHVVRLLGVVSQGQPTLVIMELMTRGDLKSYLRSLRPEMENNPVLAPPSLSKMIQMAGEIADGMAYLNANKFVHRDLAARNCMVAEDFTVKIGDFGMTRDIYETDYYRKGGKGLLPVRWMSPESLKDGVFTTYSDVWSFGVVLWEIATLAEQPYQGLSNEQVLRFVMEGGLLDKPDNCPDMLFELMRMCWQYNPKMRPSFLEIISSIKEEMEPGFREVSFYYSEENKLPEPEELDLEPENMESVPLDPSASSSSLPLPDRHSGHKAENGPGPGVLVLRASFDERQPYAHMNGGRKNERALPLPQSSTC
As to the kind of experiment: Kinase inhibition assay, IGFR-1 (Table 2). Particulars: Table 2, kinase inhibition class.

The target in assay [9] is T9, EGFR (Homo sapiens, UniProt P00533).
T9 construct: Kinases are expressed as either kinase domains or full length constructs; made in house
As to the kind of experiment: Kinase inhibition assay (33P transfer), EGFR. Particulars: Table 2, kinase inhibition class; read-out: EGFR-1. In outline: as §1

For assay [10], the target named is T10, Itk (Homo sapiens, UniProt Q08881).
T10 construct: Kinases are expressed as either kinase domains or full length constructs; made in house
T10 sequence (Q08881 1-620): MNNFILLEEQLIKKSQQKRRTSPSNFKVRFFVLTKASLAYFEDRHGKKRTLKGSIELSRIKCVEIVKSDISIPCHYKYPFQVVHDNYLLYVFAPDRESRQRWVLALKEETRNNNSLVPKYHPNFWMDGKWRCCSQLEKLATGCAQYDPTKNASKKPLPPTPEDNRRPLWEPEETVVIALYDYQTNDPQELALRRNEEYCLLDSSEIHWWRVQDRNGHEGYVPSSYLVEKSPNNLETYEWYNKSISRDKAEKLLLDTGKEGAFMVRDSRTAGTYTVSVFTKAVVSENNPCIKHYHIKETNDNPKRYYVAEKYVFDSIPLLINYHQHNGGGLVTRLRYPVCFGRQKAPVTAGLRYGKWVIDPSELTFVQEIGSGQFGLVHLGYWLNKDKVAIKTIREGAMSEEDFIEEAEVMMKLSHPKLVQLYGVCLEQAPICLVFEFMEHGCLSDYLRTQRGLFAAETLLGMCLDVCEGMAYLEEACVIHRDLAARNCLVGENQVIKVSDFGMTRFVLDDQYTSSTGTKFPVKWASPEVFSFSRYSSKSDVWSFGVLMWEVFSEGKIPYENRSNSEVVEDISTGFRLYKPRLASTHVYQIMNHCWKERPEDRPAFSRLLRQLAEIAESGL
The assay can be described thus: Kinase inhibition assay (33P transfer), Itk. The settings on record: read-out: Itk-1. Put shortly:
as §1

T3 sequence (P35968 20-1356, species assumed): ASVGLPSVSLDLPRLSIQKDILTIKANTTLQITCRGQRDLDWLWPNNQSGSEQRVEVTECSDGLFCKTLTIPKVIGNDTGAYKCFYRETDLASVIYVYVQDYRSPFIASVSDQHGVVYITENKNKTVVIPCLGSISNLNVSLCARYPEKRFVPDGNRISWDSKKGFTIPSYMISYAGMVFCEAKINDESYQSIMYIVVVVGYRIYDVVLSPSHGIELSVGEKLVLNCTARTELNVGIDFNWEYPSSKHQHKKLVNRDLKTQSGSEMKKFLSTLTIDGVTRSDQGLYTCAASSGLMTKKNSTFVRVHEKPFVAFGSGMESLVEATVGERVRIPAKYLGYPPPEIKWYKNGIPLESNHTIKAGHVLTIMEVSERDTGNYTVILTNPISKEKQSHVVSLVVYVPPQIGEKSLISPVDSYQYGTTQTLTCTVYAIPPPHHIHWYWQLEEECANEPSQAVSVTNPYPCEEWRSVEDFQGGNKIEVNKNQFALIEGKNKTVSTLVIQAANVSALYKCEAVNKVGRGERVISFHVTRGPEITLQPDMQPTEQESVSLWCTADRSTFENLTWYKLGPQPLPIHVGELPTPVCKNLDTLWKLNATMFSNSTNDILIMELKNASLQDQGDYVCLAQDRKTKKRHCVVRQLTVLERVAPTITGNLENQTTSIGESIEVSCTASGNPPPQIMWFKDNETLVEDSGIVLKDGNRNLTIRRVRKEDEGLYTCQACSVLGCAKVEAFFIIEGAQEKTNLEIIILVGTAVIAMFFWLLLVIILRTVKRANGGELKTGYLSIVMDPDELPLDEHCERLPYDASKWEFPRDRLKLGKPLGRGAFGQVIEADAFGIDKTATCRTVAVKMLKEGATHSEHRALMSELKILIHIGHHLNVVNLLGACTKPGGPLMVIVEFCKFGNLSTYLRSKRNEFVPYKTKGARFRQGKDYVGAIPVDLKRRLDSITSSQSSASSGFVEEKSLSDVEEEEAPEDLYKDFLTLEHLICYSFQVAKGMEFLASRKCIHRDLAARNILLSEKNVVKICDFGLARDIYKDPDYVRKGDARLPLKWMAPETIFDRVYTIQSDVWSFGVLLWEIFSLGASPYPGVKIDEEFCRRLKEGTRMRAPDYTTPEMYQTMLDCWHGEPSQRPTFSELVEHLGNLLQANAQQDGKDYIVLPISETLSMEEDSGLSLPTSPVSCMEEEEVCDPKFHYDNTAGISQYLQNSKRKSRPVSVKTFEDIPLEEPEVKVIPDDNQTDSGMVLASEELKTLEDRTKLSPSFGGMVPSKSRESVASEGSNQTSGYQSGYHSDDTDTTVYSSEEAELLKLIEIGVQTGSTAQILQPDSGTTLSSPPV
T5 sequence (P08581 25-1390): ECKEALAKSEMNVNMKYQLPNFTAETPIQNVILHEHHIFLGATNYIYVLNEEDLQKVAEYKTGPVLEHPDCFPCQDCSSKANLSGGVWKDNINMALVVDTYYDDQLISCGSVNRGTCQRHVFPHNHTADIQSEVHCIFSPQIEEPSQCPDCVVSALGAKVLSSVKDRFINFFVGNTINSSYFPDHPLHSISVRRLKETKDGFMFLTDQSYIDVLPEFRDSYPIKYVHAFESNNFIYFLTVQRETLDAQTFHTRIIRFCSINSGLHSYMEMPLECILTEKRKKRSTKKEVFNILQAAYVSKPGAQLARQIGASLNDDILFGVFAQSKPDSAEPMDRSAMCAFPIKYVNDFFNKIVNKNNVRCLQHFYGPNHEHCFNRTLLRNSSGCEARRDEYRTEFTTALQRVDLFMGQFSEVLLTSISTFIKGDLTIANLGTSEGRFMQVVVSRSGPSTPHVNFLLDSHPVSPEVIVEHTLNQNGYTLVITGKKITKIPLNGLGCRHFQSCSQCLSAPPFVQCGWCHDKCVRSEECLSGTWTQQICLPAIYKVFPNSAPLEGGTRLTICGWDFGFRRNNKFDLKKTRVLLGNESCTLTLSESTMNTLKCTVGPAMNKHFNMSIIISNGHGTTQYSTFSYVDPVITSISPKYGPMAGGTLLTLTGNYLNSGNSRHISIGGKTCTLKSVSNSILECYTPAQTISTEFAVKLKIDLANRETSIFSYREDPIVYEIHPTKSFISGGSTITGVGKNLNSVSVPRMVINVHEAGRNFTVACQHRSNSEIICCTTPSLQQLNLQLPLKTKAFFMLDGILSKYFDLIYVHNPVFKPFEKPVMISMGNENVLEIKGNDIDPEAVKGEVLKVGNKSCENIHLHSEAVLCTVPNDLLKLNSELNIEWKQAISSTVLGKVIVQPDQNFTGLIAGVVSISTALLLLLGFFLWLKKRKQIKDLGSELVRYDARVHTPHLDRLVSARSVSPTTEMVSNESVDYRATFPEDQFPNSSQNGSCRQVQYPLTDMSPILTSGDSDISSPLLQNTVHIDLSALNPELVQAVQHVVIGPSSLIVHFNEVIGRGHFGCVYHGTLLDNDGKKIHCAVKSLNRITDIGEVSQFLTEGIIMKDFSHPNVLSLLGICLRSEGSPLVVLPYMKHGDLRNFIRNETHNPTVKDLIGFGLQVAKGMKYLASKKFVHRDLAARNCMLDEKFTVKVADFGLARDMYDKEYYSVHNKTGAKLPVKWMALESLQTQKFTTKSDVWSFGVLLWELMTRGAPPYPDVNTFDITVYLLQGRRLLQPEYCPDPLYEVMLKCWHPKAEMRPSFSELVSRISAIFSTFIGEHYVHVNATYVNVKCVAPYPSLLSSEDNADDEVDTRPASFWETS
T7 sequence (P09619 33-1106, species assumed): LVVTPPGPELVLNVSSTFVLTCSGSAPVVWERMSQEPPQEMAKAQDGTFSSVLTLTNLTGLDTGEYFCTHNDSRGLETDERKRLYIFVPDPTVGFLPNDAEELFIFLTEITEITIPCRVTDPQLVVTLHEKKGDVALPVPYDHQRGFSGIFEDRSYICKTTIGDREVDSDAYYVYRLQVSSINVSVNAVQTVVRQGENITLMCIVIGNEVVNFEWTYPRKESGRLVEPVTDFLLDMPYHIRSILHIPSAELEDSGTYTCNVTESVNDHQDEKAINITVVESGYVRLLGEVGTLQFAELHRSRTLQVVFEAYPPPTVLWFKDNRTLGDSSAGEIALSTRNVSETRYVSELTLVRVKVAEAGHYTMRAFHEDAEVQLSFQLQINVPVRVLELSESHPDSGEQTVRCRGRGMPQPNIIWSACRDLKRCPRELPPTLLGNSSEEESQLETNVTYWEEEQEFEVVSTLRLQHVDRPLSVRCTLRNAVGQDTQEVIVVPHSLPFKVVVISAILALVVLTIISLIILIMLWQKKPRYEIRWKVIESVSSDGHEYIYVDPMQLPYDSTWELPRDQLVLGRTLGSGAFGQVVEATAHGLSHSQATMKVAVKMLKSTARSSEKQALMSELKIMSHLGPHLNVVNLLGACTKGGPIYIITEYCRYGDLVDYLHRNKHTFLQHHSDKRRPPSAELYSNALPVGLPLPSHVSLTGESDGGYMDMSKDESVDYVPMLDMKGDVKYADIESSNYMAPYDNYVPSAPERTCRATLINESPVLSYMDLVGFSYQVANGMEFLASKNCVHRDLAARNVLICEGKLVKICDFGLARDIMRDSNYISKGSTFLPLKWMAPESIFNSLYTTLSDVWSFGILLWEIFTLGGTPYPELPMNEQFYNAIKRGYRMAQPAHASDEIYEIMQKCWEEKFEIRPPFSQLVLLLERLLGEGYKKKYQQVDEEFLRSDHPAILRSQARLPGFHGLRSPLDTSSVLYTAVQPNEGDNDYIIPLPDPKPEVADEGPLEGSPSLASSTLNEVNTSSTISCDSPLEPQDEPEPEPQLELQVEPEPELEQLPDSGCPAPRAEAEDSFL

For the compound `CCN1CCCC1CNc1ncnc(Nc2ccc(OC)c(OC)c2)n1` (centres unmarked) [Compound 781], the IC50 in assay [1], in assay [2], in assay [3], in assay [4], in assay [5] and in [6] was more than 12.6 µM in each case. Further, the IC50 in assay [7] was 1.12 to 6.7 µM; in [8], more than 12.6 µM; in assay [9], more than 12.6 µM; in [10], more than 12.6 µM.

Consider `COc1ccc(Nc2ncnc(NCCCN3CCCCC3C)n2)cc1OC` (centres unmarked) [Compound 782], for which the IC50 in assay [1], in assay [2], in [3], in assay [4], in assay [5] and in assay [6] was more than 11.6 µM each time. The IC50 in [7] was 6.21 to 9.06 µM; in assay [8], more than 11.6 µM; in assay [9] it was more than 11.6 µM; in [10], more than 11.6 µM.

On to `CCOc1cccc(Nc2ncnc(Nc3ccc(OC)c(OC)c3)n2)c1` [Compound 783], for which the IC50 is 6.53 to 9.53 µM in assay [1]; more than 12.2 µM in assay [2]; 9.53 to 12.2 µM in assay [3]; more than 12.2 µM in [4]; more than 12.2 µM in [5]; 1.09 to 6.53 µM in assay [6]. Also, the IC50 was 6.53 to 9.53 µM in assay [7], 1.09 to 6.53 µM in assay [8], more than 12.2 µM in assay [9] and more than 12.2 µM in assay [10].

Take `COc1ccc(Nc2ncnc(NCCNC(C)=O)n2)cc1OC` [Compound 784]: the IC50 in [1], in assay [2], in assay [3], in [4], in assay [5] and in assay [6] was more than 13.5 µM each time. The IC50 in assay [7], in assay [8], in [9] and in assay [10] was more than 13.5 µM in each case.

For the compound `COc1ccc(Nc2ncnc(NCCCOC(C)C)n2)cc1OC` [Compound 785], the IC50 in assay [1], in assay [2], in assay [3], in assay [4], in assay [5] and in assay [6] was more than 13 µM throughout. For the same compound, the IC50 in assay [7], in assay [8], in [9] and in [10] was more than 13 µM each time.

As for `COc1ccc(Nc2ncnc(NCCCN3CCN(C)CC3)n2)cc1OC` [Compound 786], the IC50 in assay [1], in assay [2], in [3], in [4], in [5] and in [6] was more than 11.6 µM each time. The IC50 in assay [7], in assay [8], in assay [9] and in [10] was more than 11.6 µM throughout.

For the compound `COc1ccc(Nc2ncnc(NCCC#N)n2)cc1OC` [Compound 787], the IC50 in assay [1], in [2], in assay [3], in assay [4], in assay [5] and in [6] was more than 15 µM each time. Moreover, the IC50 in assay [7], in assay [8], in [9] and in assay [10] was more than 15 µM in each case.

With `CCC(O)CNc1ncnc(Nc2ccc(OC)c(OC)c2)n1` (centres unmarked) [Compound 788], the IC50 in assay [1], in [2], in [3], in [4], in assay [5] and in assay [6] was more than 14.1 µM each time. Moreover, the IC50 in assay [7] was 11 to 14.1 µM; in assay [8] it was more than 14.1 µM; in [9] it was more than 14.1 µM; in assay [10] it was more than 14.1 µM.

Consider `COc1ccc(Nc2ncnc(NC[C@@H]3CCCO3)n2)cc1OC` [Compound 790], for which the IC50 in [1] is 1.21 to 7.24 µM; in assay [2], more than 13.6 µM; in assay [3], more than 13.6 µM; in assay [4], more than 13.6 µM; in assay [5], more than 13.6 µM; in assay [6], more than 13.6 µM. Also, the IC50 in assay [7] is 10.6 to 13.6 µM; in assay [8], more than 13.6 µM; in assay [9], more than 13.6 µM; in [10], more than 13.6 µM.

Consider `COc1ccc(Nc2ncnc(NCc3c(C)cccc3Cl)n2)cc1OC` [Compound 791], for which the IC50 in [1] is 6.22 to 9.07 µM; in assay [2], more than 11.7 µM; in assay [3] it was more than 11.7 µM; in assay [4], more than 11.7 µM; in [5] it was more than 11.7 µM; in [6], more than 11.7 µM. In addition, the IC50 in assay [7], in assay [8], in assay [9] and in [10] was more than 11.7 µM in each case.

For `NC(=O)Cc1cccc(Nc2ncnc(-n3c(N)nc4ccccc43)n2)c1` [Compound 955], the IC50 was 1.11 to 6.66 µM in [1]; more than 12.5 µM in assay [2]; less than 1.11 µM in assay [3]; more than 12.5 µM in [4]; 1.11 to 6.66 µM in [5]; 1.11 to 6.66 µM in [6]. The IC50 in assay [7] was 1.11 to 6.66 µM; in assay [8], less than 1.11 µM; in assay [9] it was more than 12.5 µM; in [10], 1.11 to 6.66 µM.

As for `Nc1nc2ccccc2n1-c1ncnc(Nc2cccc(CC(=O)NCc3ccccn3)c2)n1` [Compound 956], the IC50 is more than 9.97 µM in assay [1]; more than 9.97 µM in [2]; less than 0.886 µM in assay [3]; more than 9.97 µM in assay [4]; 7.75 to 9.97 µM in assay [5]; 5.32 to 7.75 µM in assay [6]. The IC50 was 5.32 to 7.75 µM in [7], less than 0.886 µM in [8], more than 9.97 µM in [9] and 0.886 to 5.32 µM in assay [10].

Take `c1ccc(CNc2nc3ccccc3n2-c2ncnc(Nc3cccc(Cc4nnn[nH]4)c3)n2)cc1` [Compound 957]: the IC50 is less than 0.841 µM in assay [1]; 0.841 to 5.05 µM in assay [2]; less than 0.841 µM in [3]; 5.05 to 7.36 µM in [4]; 0.841 to 5.05 µM in assay [5]; 0.841 to 5.05 µM in assay [6]. Also, the IC50 in assay [7] is less than 0.841 µM; in assay [8], 0.841 to 5.05 µM; in assay [9] it was less than 0.841 µM; in [10] it was 0.841 to 5.05 µM.

Consider `c1ccc(CNc2nc3ccccc3n2-c2ncnc(Nc3cccc(Cc4nnn[nH]4)c3)n2)nc1` [Compound 958], for which the IC50 in [1] was 0.839 to 5.04 µM; in [2] it was 5.04 to 7.35 µM; in [3] it was less than 0.839 µM; in [4], 5.04 to 7.35 µM; in assay [5] it was 0.839 to 5.04 µM; in [6], 0.839 to 5.04 µM. Moreover, the IC50 in [7], in assay [8], in [9] and in [10] was 0.839 to 5.04 µM each time.
